Measured values reported in patent publication US8633205B2, “Substituted pyrrolo[2,3-d]pyrimidines as inhibitors of protein kinases” (Vertex Pharmaceuticals Incorporated, priority 2005, dated 2014).

What was measured:
Assay type in all cases: biochemical
[1] = target: JAK2 (Homo sapiens, UniProt O60674); assay: JAK2 Inhibition Assay; details: 15 μM poly(Glu)4Tyr, 12 μM ATP; read-out: JAK2 enzyme inhibition (Ki)
Method: (§1) Compounds were screened for their ability to inhibit JAK using the […] below. Reactions were carried out in a kinase buffer containing 100 mM HEPES (pH 7.4), 1 mM DTT, 10 mM MgCl2, 25 mM NaCl, and 0.01% BSA.
(§2) Substrate concentrations in the assay were 5 μM ATP (200 uCi/μmole ATP) 1 μM poly(Glu)4Tyr. Reactions were carried out at 25 ° C. and 1 nM JAK3.
(§3) To each well of a 96 well polycarbonate plate was added 1.5 μl of a JAK3 inhibitor along with 50 μl of kinase buffer containing 2 μM poly(Glu)4Tyr and 10 μM ATP. This was then mixed and 50 μl of kinase buffer 2 nM JAK3 enzyme was added to start the reaction. After 20 minutes at room temperature (25C), the reaction was stopped with 50 μl of 20% trichloroacetic acid (TCA) that also contained 0.4 mM ATP. The entire contents of each well were then transferred to a 96 well glass fiber filter plate using a TomTek Cell Harvester. After washing, 60 μl of scintillation fluid was added and ^33P incorporation detected on a Perkin Elmer TopCount.
As described above in Example 11 except that JAK-2 enzyme is used, the final poly(Glu)4Tyr concentration is 15 μM, and final ATP concentration is 12 μM.

[2] = target: T1, JAK3 (Homo sapiens, UniProt P52333); assay: JAK3 Inhibition Assay; details: 1 μM poly(Glu)4Tyr, 5 μM ATP, 1 nM JAK3, 25 °C; read-out: JAK3 enzyme inhibition (Ki)
T1 sequence (P52333 1-1124): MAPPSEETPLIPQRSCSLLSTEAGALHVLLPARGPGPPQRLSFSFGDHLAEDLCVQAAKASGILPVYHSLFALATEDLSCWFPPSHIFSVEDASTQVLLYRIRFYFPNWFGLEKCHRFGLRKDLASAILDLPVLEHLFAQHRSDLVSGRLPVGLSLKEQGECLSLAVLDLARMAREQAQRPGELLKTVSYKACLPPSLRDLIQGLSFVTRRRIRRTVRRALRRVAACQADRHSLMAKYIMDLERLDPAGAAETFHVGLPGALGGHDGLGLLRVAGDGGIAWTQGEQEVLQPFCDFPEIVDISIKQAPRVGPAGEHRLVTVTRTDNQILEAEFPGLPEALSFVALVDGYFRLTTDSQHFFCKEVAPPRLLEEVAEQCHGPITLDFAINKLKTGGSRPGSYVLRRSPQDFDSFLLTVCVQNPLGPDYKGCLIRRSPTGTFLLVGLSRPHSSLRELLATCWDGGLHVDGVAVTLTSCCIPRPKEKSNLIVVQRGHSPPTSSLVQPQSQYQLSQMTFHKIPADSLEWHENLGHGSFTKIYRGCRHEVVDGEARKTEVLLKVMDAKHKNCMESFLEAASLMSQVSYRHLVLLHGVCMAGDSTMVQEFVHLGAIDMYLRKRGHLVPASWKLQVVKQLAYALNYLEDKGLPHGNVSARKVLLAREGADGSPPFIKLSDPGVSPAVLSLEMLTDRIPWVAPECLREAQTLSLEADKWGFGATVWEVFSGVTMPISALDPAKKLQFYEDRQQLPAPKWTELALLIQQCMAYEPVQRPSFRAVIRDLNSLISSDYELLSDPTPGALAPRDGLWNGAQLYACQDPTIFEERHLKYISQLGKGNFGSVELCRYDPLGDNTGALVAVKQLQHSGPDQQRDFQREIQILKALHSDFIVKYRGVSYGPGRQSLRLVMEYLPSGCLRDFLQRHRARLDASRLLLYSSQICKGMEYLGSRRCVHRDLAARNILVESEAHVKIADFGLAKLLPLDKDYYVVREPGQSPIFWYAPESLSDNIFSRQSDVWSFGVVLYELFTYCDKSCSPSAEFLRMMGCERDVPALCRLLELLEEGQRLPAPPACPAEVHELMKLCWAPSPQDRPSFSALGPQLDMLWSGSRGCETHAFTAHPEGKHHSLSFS
Method: as §1, §2, §3

[3] = target: PKA (Homo sapiens, UniProt P17612); assay: PKA Inhibition Assay (coupled enzyme assay); details: 50 μM ATP, 80 μM Kemptide, 18 nM PKA, 30 °C
Method: Compounds were screened for their ability to inhibit PKA using a standard coupled enzyme assay (Fox et al., Protein Sci, 1998, 7, 2249). Assays were carried out in a mixture of 100 mM HEPES (pH 7.5), 10 mM MgCl2, 25 mM NaCl, 1 mM DTT and 3% DMSO. Final substrate concentrations in the assay were 50 μM ATP (Sigma Chemicals) and 80 μM peptide (Kemptide, American Peptide, Sunnyvale, Calif.). Assays were carried out at 30 ° C. and 18 nM PKA. Final concentrations of the components of the coupled enzyme system were 2.5 mM phosphoenolpyruvate, 300 μM NADH, 30 μg/ml pyruvate kinase and 10 μg/ml lactate dehydrogenase.
An assay stock buffer solution was prepared containing all of the reagents listed above, with the exception of ATP, and the test compound of the present invention. 55 μl of the stock solution was placed in a 96 well plate followed by addition of 2 μl of DMSO stock containing serial dilutions of the test compound of the present invention (typically starting from a final concentration of 5 μM). The plate was preincubated for 10 minutes at 30° C. and the reaction initiated by addition of 5 μl of ATP (final concentration 50 μM). Initial reaction rates were determined with a Molecular Devices SpectraMax Plus plate reader over a 15 minute time course. IC50 and Ki data were calculated from non-linear regression analysis using the Prism software package (GraphPad Prism version 3.0a for Macintosh, GraphPad Software, San Diego, Calif., USA).

[4] = target: T2, ROCK (Homo sapiens, UniProt Q13464); assay: ROCK Inhibition Assays; details: read-out: ROCK enzyme inhibition (Ki)
T2 construct: ROCK I (AA 6-553)
Method: Compounds are screened for their ability to inhibit ROCK I (AA 6-553) activity using a standard coupled enzyme system (Fox et al. Protein Sci. 7: 2249, 1998). Reactions are carried out in a solution containing 100 mM HEPES (pH 7.5), 10 mM MgCl2, 25 mM NaCl, 2 mM DTT and 1.5% DMSO. Final substrate concentrations in the assay are 45 μM ATP (Sigma Chemicals, St Louis, Mo.) and 200 μM peptide (American Peptide, Sunnyvale, Calif.). Reactions are carried out at 30 ° C. and 45 nM ROCK I. Final concentrations of the components of the coupled enzyme system are 2.5 mM phosphoenolpyruvate, 350 μM NADH, 30 μg/ml pyruvate kinase and 10 μg/ml lactate dehydrogenase.
Compounds are screened for their ability to inhibit ROCK using a standard radioactive enzyme assay. Assays are carried out in a solution containing 100 mM HEPES (pH 7.5), 10 mM MgCl2, 25 mM NaCl, 2 mM DTT and 1.5% DMSO. Final substrate concentrations in the assay are 13 μM [γ-^33P] ATP (25 mCi ^33P ATP/mmol ATP, Perkin Elmer, Cambridge, Mass./Sigma Chemicals, St Louis, Mo.) and 27 μM Myelin Basic Protein (MBP). Final enzyme concentration in the assay is 5 nM ROCK. Assays are carried out at room temperature. 1.5 μl of DMSO stock containing serial dilutions of the compound of the present invention (concentrations ranging from 10 μM to 2.6 nM) is placed in a 96 well plate. 50 μl of Solution 1 (100 mM HEPES (pH 7.5), 10 mM MgCl2, […] [γ-^33P] ATP) is added to the plate. The reaction is initiated by addition of 50 μl of Solution 2 (100 mM HEPES (pH 7.5), 10 mM MgCl2, 4 mM DTT, […] and 10 nM ROCK). After 2 hours the reaction is quenched with 50 μL of 30% trichloroacetic acid (TCA, Fisher) containing 9 mM ATP. Transfer of 140 μL of the quenched reaction to a glass fiber filter plate (Corning, Cat. No.3511) is followed by washing 3 times with 5% TCA. 50 μL of Optima Gold scintillation fluid (Perkin Elmer) is added and the plates are counted on a Top Count (Perkin Elmer). After removing mean background values for all of the data points the data is fit using Prism software to obtain a Ki(app).

Chain of JAK2 (O60674 whole entry): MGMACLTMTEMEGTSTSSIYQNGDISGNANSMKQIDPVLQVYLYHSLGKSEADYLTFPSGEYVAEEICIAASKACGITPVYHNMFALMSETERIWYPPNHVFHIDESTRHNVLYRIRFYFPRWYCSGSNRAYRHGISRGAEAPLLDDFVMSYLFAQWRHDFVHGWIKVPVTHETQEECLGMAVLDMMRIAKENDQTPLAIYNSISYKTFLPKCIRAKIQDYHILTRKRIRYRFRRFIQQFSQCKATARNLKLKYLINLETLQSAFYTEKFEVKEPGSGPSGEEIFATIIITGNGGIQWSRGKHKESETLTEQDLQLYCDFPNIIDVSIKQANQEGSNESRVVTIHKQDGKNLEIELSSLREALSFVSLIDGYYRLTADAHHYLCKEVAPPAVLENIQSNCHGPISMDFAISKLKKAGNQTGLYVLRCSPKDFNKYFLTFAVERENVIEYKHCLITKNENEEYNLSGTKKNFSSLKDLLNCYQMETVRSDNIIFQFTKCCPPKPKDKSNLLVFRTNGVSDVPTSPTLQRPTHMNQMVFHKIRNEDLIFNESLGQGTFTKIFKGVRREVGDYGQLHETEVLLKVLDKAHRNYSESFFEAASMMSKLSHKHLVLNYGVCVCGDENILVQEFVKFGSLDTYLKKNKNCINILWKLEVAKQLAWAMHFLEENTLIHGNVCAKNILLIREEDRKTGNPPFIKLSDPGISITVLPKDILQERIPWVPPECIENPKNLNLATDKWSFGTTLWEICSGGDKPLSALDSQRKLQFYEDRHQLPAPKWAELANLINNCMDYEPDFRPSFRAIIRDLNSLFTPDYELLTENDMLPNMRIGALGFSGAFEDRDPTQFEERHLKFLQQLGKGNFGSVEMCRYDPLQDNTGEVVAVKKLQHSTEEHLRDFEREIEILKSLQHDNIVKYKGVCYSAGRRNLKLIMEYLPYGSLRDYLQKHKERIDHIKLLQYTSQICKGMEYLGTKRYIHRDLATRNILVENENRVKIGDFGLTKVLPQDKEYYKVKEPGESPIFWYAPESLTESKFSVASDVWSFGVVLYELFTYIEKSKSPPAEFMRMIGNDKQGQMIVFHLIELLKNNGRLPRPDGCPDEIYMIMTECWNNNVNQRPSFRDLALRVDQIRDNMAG
T2 sequence (Q13464 6-553): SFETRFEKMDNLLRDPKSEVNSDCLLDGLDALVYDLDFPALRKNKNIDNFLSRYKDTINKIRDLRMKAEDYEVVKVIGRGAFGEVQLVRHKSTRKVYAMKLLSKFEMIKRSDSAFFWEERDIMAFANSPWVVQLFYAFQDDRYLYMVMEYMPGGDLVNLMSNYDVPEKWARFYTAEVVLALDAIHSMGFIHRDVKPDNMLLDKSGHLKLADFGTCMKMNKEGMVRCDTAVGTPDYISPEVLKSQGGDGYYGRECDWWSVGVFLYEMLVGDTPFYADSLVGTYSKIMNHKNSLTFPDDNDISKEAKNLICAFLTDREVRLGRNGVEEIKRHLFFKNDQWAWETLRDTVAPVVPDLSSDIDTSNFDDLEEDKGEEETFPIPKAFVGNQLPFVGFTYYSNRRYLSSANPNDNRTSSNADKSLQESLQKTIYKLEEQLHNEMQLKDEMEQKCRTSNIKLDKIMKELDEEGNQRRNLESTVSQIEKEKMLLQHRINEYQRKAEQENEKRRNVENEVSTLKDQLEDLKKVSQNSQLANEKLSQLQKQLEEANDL

| Ki [1] [nM] | Ki [2] [nM] | Ki [3] [nM] | Ki [4] [nM] | Compound |
| --- | --- | --- | --- | --- |
| < 500 | < 500 | 500 to 5000 | 500 to 5000 | c1nc(CC2CCCCC2)c2cc[nH]c2n1 [Compound 27] |
| 500 to 5000 | 500 to 5000 | 500 to 5000 | 500 to 5000 | CC(C)(C#N)CCCCc1ncnc2[nH]ccc12 [Compound 30] |
| < 500 | < 500 | 500 to 5000 | 500 to 5000 | CC(C)CCc1ncnc2[nH]ccc12 [Compound 31] |

More lines, now with the values behind:

| Compound | Ki [1] [nM] | Ki [2] [nM] | Ki [3] [nM] | Ki [4] [nM] |
| --- | --- | --- | --- | --- |
| c1nc(C2CC3CCC2C3)c2cc[nH]c2n1 (stereo not drawn) [Compound 26, 4-Bicyclo[2.2.1]hept-2-yl-7H-pyrrolo[2,3-d]pyrimidine] | < 500 | < 500 | 500 to 5000 | 500 to 5000 |
| N#CCCCCc1ncnc2[nH]ccc12 [Compound 28] | 500 to 5000 | 500 to 5000 | 500 to 5000 | 500 to 5000 |
| c1nc(CCC2OCCCO2)c2cc[nH]c2n1 [Compound 29] | 500 to 5000 | 500 to 5000 | 500 to 5000 | 500 to 5000 |
